Assay results reported in patent US20240368214A1, “POSITIVE NMDA-MODULATING COMPOUNDS AND METHODS OF USE THEREOF” (SAGE THERAPEUTICS, INC., priority 2021, published 2024).
pEC50: −log10 of the molar value. Where two headings read alike, the source gives them in different places.

Target: T1, recombinant human GluN1/GluN2A receptor (Homo sapiens, UniProt Q05586+Q12879)
T1 construct: expressed in transfected cells; host or cells: HEK293, tetracycline-inducible expression
Test: Whole-cell patch clamp of mammalian cells (Syncropatch 384i), NMDA modulation
Type: cell-based
Details: HEK293 cells, human GluN1/GluN2A, glutamate 1 μM / glycine 100 μM, -80 mV, peak amplitude increase; for pEC50: read-out: EC50
In short: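 HEK293 cells with tetracycline-induced (50 ng/ml, 18–24 h) human GluN1/GluN2A, automated whole-cell recording at −80 mV, pH 7.4 external. After 120 s compound pre-incubation, compound applied with glutamate 1 μM/glycine 100 μM; fold peak increase (Icomp/Icontrol)−1 over 8 concentrations fitted four-parameter logistic.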

T1 sequence (Q12879 23-1464, other chains not shown): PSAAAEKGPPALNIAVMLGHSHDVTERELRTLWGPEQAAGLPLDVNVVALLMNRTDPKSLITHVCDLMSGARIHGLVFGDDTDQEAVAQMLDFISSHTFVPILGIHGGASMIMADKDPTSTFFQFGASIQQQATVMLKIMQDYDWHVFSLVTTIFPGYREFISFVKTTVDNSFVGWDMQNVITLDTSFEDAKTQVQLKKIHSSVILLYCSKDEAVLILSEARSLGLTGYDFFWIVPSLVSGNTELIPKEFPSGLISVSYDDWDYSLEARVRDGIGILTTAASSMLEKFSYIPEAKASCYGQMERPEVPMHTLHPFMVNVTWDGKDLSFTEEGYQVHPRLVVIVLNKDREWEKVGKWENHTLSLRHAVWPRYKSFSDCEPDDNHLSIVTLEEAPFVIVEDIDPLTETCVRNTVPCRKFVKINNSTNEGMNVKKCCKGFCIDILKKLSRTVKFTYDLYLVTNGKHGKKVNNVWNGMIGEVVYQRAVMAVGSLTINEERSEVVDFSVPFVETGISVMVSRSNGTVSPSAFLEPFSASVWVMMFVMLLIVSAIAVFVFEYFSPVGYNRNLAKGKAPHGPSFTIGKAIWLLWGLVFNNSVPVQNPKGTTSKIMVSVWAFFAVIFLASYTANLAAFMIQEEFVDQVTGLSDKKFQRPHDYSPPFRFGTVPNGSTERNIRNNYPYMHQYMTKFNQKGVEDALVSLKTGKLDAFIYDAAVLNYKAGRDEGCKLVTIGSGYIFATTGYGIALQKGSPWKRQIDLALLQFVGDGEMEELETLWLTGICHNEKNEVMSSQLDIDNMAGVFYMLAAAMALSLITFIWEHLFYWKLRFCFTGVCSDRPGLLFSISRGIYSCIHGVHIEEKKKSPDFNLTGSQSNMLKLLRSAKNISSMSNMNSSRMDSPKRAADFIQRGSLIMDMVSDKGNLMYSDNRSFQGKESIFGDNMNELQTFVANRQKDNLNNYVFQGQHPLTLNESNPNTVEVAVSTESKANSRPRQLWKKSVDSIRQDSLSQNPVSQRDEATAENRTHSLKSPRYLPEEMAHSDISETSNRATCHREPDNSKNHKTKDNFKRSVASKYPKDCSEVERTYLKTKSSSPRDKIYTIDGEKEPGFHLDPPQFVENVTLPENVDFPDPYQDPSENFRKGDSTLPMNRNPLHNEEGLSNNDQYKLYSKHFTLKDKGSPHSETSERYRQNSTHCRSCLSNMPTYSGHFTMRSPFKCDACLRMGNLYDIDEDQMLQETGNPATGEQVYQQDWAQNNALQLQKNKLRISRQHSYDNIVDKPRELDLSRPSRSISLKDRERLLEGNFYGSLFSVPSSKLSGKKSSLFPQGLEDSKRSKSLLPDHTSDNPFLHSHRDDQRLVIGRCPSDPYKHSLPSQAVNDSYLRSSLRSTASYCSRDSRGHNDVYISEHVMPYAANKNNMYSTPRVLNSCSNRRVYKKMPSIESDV

SMILES	Emax (Table B-2)	pEC50 (Table B-2)	Emax (Table C-2)	pEC50 (Table C-2)
CC[C@]1(O)CC[C@@]2(C)[C@@H](CC[C@H]3[C@@H]4[C@H](C)C[C@H]([C@H](C)CC[C@@](C)(O)C(F)(F)F)[C@@]4(C)CC[C@@H]32)C1 [Compound B-16, (3S,5S,8R,9S,10S,13R,14S,15R,17R)-3-ethyl-10,13,15-trimethyl-17-((2R,5R)-6,6,6-trifluoro-5-hydroxy-5-methylhexan-2-yl)hexadecahydro-1H-cyclopenta[a]phenanthren-3-ol]	100 to 200%	6.30 to 7.00		
CC[C@]1(O)CC[C@@]2(C)[C@@H](CC[C@H]3[C@@H]4[C@H](C5CC5)C[C@H]([C@H](C)CCCC(C)(C)O)[C@@]4(C)CC[C@@H]32)C1 [Compound B-17, (3S,5S,8R,9S,10S,13R,14S,15S,17R)-15-cyclopropyl-3-ethyl-17-((R)-6-hydroxy-6-methylheptan-2-yl)-10,13-dimethylhexadecahydro-1H-cyclopenta[a]phenanthren-3-ol]	100 to 200%	6.30 to 7.00		
CC[C@]1(O)CC[C@@]2(C)[C@@H](CC[C@H]3[C@@H]4[C@H](C)C[C@H]([C@H](C)CCCC(C)(C)O)[C@@]4(C)CC[C@@H]32)C1 [Compound B-18, (3S,5S,8R,9S,10S,13R,14S,15R,17R)-3-ethyl-17-((R)-6-hydroxy-6-methylheptan-2-yl)-10,13,15-trimethylhexadecahydro-1H-cyclopenta[a]phenanthren-3-ol]	100 to 200%	7.00 to 9.00		
CC[C@]1(O)CC[C@@]2(C)[C@@H](CC[C@H]3[C@@H]4[C@@H](C5CC5)C[C@H]([C@H](C)CCCC(C)(C)O)[C@@]4(C)CC[C@@H]32)C1 [Compound B-19, (3S,5S,8R,9S,10S,13R,14S,15R,17R)-15-cyclopropyl-3-ethyl-17-((R)-6-hydroxy-6-methylheptan-2-yl)-10,13-dimethylhexadecahydro-1H-cyclopenta[a]phenanthren-3-ol]	100 to 200%	6.30 to 7.00		
CC[C@]1(O)CC[C@@]2(C)C(=CC[C@H]3[C@@H]4[C@@H]5C[C@@H]5[C@H]([C@H](C)CCCC(C)(C)O)[C@@]4(C)CC[C@@H]32)C1 [Compound B-20, (2S,4aR,4bS,6aR,7S,7aS,8aR,8bS,8cR)-2-ethyl-7-((R)-6-hydroxy-6-methylheptan-2-yl)-4a,6a-dimethyl-1,2,3,4,4a,4b,5,6,6a,7,7a,8,8a,8b,8c,9-hexadecahydrocyclopropa[4,5]cyclopenta[1,2-a]phenanthren-2-ol]	100 to 200%	7.00 to 9.00		
CC[C@]1(O)CC[C@@]2(C)C(=CC[C@H]3[C@@H]4[C@H](C)C[C@H]([C@H](C)CCCC(C)(C)O)[C@@]4(C)CC[C@@H]32)C1 [Compound B-21, (3S,8R,9S,10R,13R,14S,15R,17R)-3-ethyl-17-((R)-6-hydroxy-6-methylheptan-2-yl)-10,13,15-trimethyl-2,3,4,7,8,9,10,11,12,13,14,15,16,17-tetradecahydro-1H-cyclopenta[a]phenanthren-3-ol]		7.00 to 9.00		
CC[C@]1(O)CC[C@@]2(C)[C@@H](CC[C@@H]3[C@@H]2CC[C@]2(C)[C@@H]([C@H](C)CCCC(C)(C)O)[C@H](C)C[C@@H]32)C1 [Compound B-22, (3S,5S,8R,9S,10S,13S,14S,16R,17S)-3-ethyl-17-((R)-6-hydroxy-6-methylheptan-2-yl)-10,13,16-trimethylhexadecahydro-1H-cyclopenta[a]phenanthren-3-ol]	> 200%	6.30 to 7.00		
CC[C@]1(O)CC[C@@]2(C)[C@@H](CC[C@@H]3[C@@H]2CC[C@]2(C)[C@@H]([C@H](C)CC[C@H](O)C(C)C)[C@H](C)C[C@@H]32)C1 [Compound B-23, (3S,5S,8R,9S,10S,13S,14S,16R,17S)-3-ethyl-17-((2R,5S)-5-hydroxy-6-methylheptan-2-yl)-10,13,16-trimethylhexadecahydro-1H-cyclopenta[a]phenanthren-3-ol]	> 200%	7.00 to 9.00		
CC[C@]1(O)CC[C@@]2(C)[C@@H](CC[C@@H]3[C@@H]2CC[C@]2(C)[C@@H]([C@H](C)CC[C@@H](O)C(C)C)[C@H](C)C[C@@H]32)C1 [Compound B-24, (3S,5S,8R,9S,10S,13S,14S,16R,17S)-3-ethyl-17-((2R,5R)-5-hydroxy-6-methylheptan-2-yl)-10,13,16-trimethylhexadecahydro-1H-cyclopenta[a]phenanthren-3-ol]	> 200%	6.30 to 7.00		
CC[C@]1(O)CC[C@@]2(C)[C@@H](CC[C@@H]3[C@@H]2CC[C@]2(C)[C@@H]([C@H](C)CC[C@@H](O)C(C)(C)C#N)CC[C@@H]32)C1 [Compound C-1, (3R,6R)-6-((3S,5S,8R,9S,10S,13R,14S,17R)-3-ethyl-3-hydroxy-10,13-dimethylhexadecahydro-1H-cyclopenta[a]phenanthren-17-yl)-3-hydroxy-2,2-dimethylheptanenitrile]			> 200%	7.00 to 9.00
CC[C@]1(O)CC[C@@]2(C)[C@@H](CC[C@@H]3[C@@H]2CC[C@]2(C)[C@@H]([C@H](C)CC[C@H](O)C(C)(C)C#N)CC[C@@H]32)C1 [Compound C-2, (3S,6R)-6-((3S,5S,8R,9S,10S,13R,14S,17R)-3-ethyl-3-hydroxy-10,13-dimethylhexadecahydro-1H-cyclopenta[a]phenanthren-17-yl)-3-hydroxy-2,2-dimethylheptanenitrile]			100 to 200%	7.00 to 9.00
CC[C@]1(O)CC[C@@]2(C)[C@@H](CC[C@@H]3[C@@H]2CC[C@]2(C)[C@@H]([C@H](C)CC[C@@H](O)C4(C#N)CC4)CC[C@@H]32)C1 [Compound C-3, 1-((1R,4R)-4-((3S,5S,8R,9S,10S,13R,14S,17R)-3-ethyl-3-hydroxy-10,13-dimethylhexadecahydro-1H-cyclopenta[a]phenanthren-17-yl)-1-hydroxypentyl)cyclopropanecarbonitrile]			> 200%	7.00 to 9.00
CC[C@]1(O)CC[C@@]2(C)[C@@H](CC[C@@H]3[C@@H]2CC[C@]2(C)[C@@H]([C@H](C)CC[C@H](O)C4(C#N)CC4)CC[C@@H]32)C1 [Compound C-4, 1-((1S,4R)-4-((3S,5S,8R,9S,10S,13R,14S,17R)-3-ethyl-3-hydroxy-10,13-dimethylhexadecahydro-1H-cyclopenta[a]phenanthren-17-yl)-1-hydroxypentyl)cyclopropanecarbonitrile]			< 100%	6.30 to 7.00
CC[C@H](C#N)[C@H](O)CC[C@@H](C)[C@H]1CC[C@H]2[C@@H]3CC[C@H]4C[C@](O)(CC)CC[C@]4(C)[C@H]3CC[C@]12C [Compound C-5, (2R,3R,6R)-2-ethyl-6-((3S,5S,8R,9S,10S,13R,14S,17R)-3-ethyl-3-hydroxy-10,13-dimethylhexadecahydro-1H-cyclopenta[a]phenanthren-17-yl)-3-hydroxyheptanenitrile]			> 200%	7.00 to 9.00
CC[C@H](C#N)[C@@H](O)CC[C@@H](C)[C@H]1CC[C@H]2[C@@H]3CC[C@H]4C[C@](O)(CC)CC[C@]4(C)[C@H]3CC[C@]12C [Compound C-6, (2R,3S,6R)-2-ethyl-6-((3S,5S,8R,9S,10S,13R,14S,17R)-3-ethyl-3-hydroxy-10,13-dimethylhexadecahydro-1H-cyclopenta[a]phenanthren-17-yl)-3-hydroxyheptanenitrile]			100 to 200%	6.30 to 7.00
CC[C@@H](C#N)[C@H](O)CC[C@@H](C)[C@H]1CC[C@H]2[C@@H]3CC[C@H]4C[C@](O)(CC)CC[C@]4(C)[C@H]3CC[C@]12C [Compound C-7, (2S,3R,6R)-2-ethyl-6-((3S,5S,8R,9S,10S,13R,14S,17R)-3-ethyl-3-hydroxy-10,13-dimethylhexadecahydro-1H-cyclopenta[a]phenanthren-17-yl)-3-hydroxyheptanenitrile]			> 200%	7.00 to 9.00
CC[C@@H](C#N)[C@@H](O)CC[C@@H](C)[C@H]1CC[C@H]2[C@@H]3CC[C@H]4C[C@](O)(CC)CC[C@]4(C)[C@H]3CC[C@]12C [Compound C-8, (25,3S,6R)-2-ethyl-6-((3S,5S,8R,9S,10S,13R,14S,17R)-3-ethyl-3-hydroxy-10,13-dimethylhexadecahydro-1H-cyclopenta[a]phenanthren-17-yl)-3-hydroxyheptanenitrile]			< 100%	7.00 to 9.00
COC[C@]1(O)CC[C@@]2(C)[C@@H](CC[C@@H]3[C@@H]2CC[C@]2(C)[C@@H]([C@H](C)CC[C@@H](O)C(C)(C)C#N)CC[C@@H]32)C1 [Compound C-9, (3R,6R)-3-hydroxy-6-((3S,5S,8R,9S,10S,13R,14S,17R)-3-hydroxy-3-(methoxymethyl)-10,13-dimethylhexadecahydro-1H-cyclopenta[a]phenanthren-17-yl)-2,2-dimethylheptanenitrile]			< 100%	7.00 to 9.00
CC[C@]1(O)CC[C@@]2(C)[C@@H](CC[C@@H]3[C@@H]2CC[C@]2(C)[C@@H]([C@H](C)CC[C@H](O)CC#N)CC[C@@H]32)C1 [Compound C-10, (3S,6R)-6-((3S,5S,8R,9S,10S,13R,14S,17R)-3-ethyl-3-hydroxy-10,13-dimethylhexadecahydro-1H-cyclopenta[a]phenanthren-17-yl)-3-hydroxyheptanenitrile]			< 100%	6.30 to 7.00
